Source: patent US9593305B2, “Differentiation of pluripotent stem cells” (Janssen Biotech, Inc., priority 2008, dated 2017)

Test system: H1 human embryonic stem cells
Assay: Compounds and growth factors with low dose activin A (Example 9, Table 9)
Format: cell-based
Description: Clusters of H1 human embryonic stem cells were grown on reduced growth factor […]™ (Invitrogen; Cat #356231)-coated tissue culture plastic. Cells were passaged using collagenase (Invitrogen; Cat #17104-019) treatment and gentle scraping, washed to remove residual enzyme, and plated with even dispersal at a ratio of 1:1 (surface area) on reduced growth factor […]™-coated 96-well black plates (Packard ViewPlates; PerkinElmer; Cat #6005182) using volumes of 100 μl/well. Cells were allowed to attach as clusters and then recover log phase growth over a 1 to 3 day period, feeding daily with MEF conditioned medium supplemented with 8 ng/ml bFGF (R&D Systems; Cat #233-FB). Plates were maintained at 37° C., 5% CO2 in a humidified box throughout the duration of assay.
Stocks of growth factors purchased from R&D Systems were EGF (Cat #236-EG), FGF4 (Cat #235-F4), PDGF-A (Cat #221-AA), PDGF-D (Cat #1159-SB), PDGF-A/B (Cat #222-AB), VEGF (Cat #293-VE), and GDF-8 (Cat #788-08). Activin A was purchased from PeproTech (Cat #). Muscimol was purchased from Tocris (Cat #0289). All growth factors were solubilized in PBS with 0.1% BSA (Sigma; Cat #A7888) and stored frozen at −80° C. Muscimol was solubilized in 100% DMSO (Sigma; Cat #D2650) and stored frozen at −80° C. The compounds were available as 5 mM stocks in 96-well plate format, solubilized in 100% DMSO and stored at −80° C. The compounds were further diluted to an intermediate concentration of 0.2 mM in 50 mM HEPES (Invitrogen; Cat #15630-080), 20% DMSO and stored at 4° C. All growth factors and inhibitors were prepared in a deep well, 96-well polypropylene plate, diluted to 5× intermediate stocks in DMEM:F12 base medium at the beginning of assay and stored at 4° C.
A secondary screening assay was conducted, testing in triplicate and feeding on alternate days over the four-day assay timeframe. Assays were initiated by aspirating culture medium from each well followed by three washes in PBS to remove residual growth factors and serum. Test volumes of 80 μl per well were added back containing DMEM:F12 base medium (Invitrogen; Cat #11330-032) supplemented with 0.625% FCS (HyClone; Cat #SH30070.03), 25 ng/ml Wnt3a (R&D Systems), 12.5 ng/ml activin A, and 3.125 μM compound plus 20 μl 5× stock of growth factor or small molecule to yield a final concentration of 0.5% FCS, 20 ng/ml Wnt3a, 10 ng/ml activin A, and 2.5 μM compound. All remaining growth factors were tested at a final assay concentration of 50 ng/ml (EGF, FGF4, PDGF-A, PDGF-A/B, VEGF), with the exception of GDF-8 used at 25 ng/ml. Final assay concentration of muscimol was 20 μM. Positive control wells (100 μl/well) contained the same base medium supplemented with 0.5% FCS, 20 ng/ml Wnt3a and 10 ng/ml (low dose) or 100 ng/ml (high dose) activin A. Negative control wells (100 μl/well) contained the same base medium with 0.5% FCS and 20 ng/ml Wnt3a, omitting activin A.
Positive control wells (100 μl/well) contained the same base medium supplemented with 2% FCS and 10 ng/ml or 100 ng/ml activin A, omitting Wnt3a. Negative control wells (100 μl/well) contained the same base medium with 2% FCS, omitting both activin A and Wnt3a.
At the conclusion of four-days of culture, assay plates were washed twice with PBS, fixed with 4% paraformaldehyde (Alexis Biochemical; Cat #ALX-350-011) at room temperature for 20 minutes, then washed three times with PBS and permeabilized with 0.5% Triton X-100 (Sigma; Cat #T8760-2) for 20 minutes at room temperature. Cells were washed again three times with PBS and blocked with 4% chicken serum (Invitrogen; Cat #16110082) in PBS for 30 minutes at room temperature. Primary antibody (goat anti-human SOX17; R&D Systems; cat #AF1924) was diluted 1:100 in 4% chicken serum and added to each well for one hour at room temperature. […]

[1] = 10 ng/ml AA + compound + EGF + FGF4 + PDGF-A + Muscimol + Wnt3a
[2] = 10 ng/ml AA + compound + EGF + FGF4 + PDGF-A + VEGF + PDGF-D + Muscimol + GDF8 + Wnt3a
[3] = 10 ng/ml AA + compound + EGF + FGF4 + PDGF-AB + VEGF + Wnt3a
[4] = 10 ng/ml AA + compound + EGF + FGF4 + PDGF-AB + Wnt3a
[5] = 10 ng/ml AA + compound + EGF + FGF4 + Wnt3a
[6] = 10 ng/ml AA + compound + EGF + Wnt3a
[7] = 10 ng/ml AA + compound + FGF4 + Wnt3a

Structure (SMILES) | Cell Number, % of positive control [1] | Cell Number, Average Total Cell Number [1] | Sox17 Expression, % of positive control [1] | Sox17 Expression, Average Total Intensity [1] | Cell Number, % of positive control [2] | Cell Number, Average Total Cell Number [2] | Sox17 Expression, % of positive control [2] | Sox17 Expression, Average Total Intensity [2] | Cell Number, % of positive control [3] | Cell Number, Average Total Cell Number [3] | Sox17 Expression, % of positive control [3] | Sox17 Expression, Average Total Intensity [3] | Cell Number, % of positive control [4] | Cell Number, Average Total Cell Number [4] | Sox17 Expression, % of positive control [4] | Sox17 Expression, Average Total Intensity [4] | Cell Number, % of positive control [5] | Cell Number, Average Total Cell Number [5] | Sox17 Expression, % of positive control [5] | Sox17 Expression, Average Total Intensity [5] | also measured
O=C1CCN2CCN(CC2)Cc2cc(Cl)cc(c2)Nc2ncnc(n2)-c2cncc(c2)CCCN1 [Compound 34, 5-Chloro-1,8,10,12,16,22,26,32-octaazapentacyclo[24.2.2.1˜3.7˜0.1˜9,13˜0.1˜14.18˜]tritriaconta-3(33), 4,6,9(32), 10,12,14(31), 15,17-nonaen-23-one] | 233.85 % of positive control | 17890 | 258.30 % of positive control | 2.88E+08 | 240.02 % of positive control | 18362 | 309.74 % of positive control | 3.45E+08 | 203.58 % of positive control | 15574 | 232.70 % of positive control | 2.59E+08 | 233.65 % of positive control | 17875 | 241.07 % of positive control | 2.68E+08 | 185.07 % of positive control | 14158 | 215.35 % of positive control | 2.40E+08 | Cell Number, % of positive control [6]: 189.89 % of positive control; Cell Number, Average Total Cell Number [6]: 14527; Sox17 Expression, % of positive control [6]: 204.84 % of positive control; Sox17 Expression, Average Total Intensity [6]: 2.28E+08; Cell Number, % of positive control [7]: 174.15 % of positive control; Cell Number, Average Total Cell Number [7]: 13323; Sox17 Expression, % of positive control [7]: 196.86 % of positive control; Sox17 Expression, Average Total Intensity [7]: 2.19E+08; Cell Number, % of positive control (10 ng/ml AA + compound + Wnt3a): 46.91 % of positive control; Cell Number, Average Total Cell Number (10 ng/ml AA + compound + Wnt3a): 3589; Sox17 Expression, % of positive control (10 ng/ml AA + compound + Wnt3a): 63.08 % of positive control; Sox17 Expression, Average Total Intensity (10 ng/ml AA + compound + Wnt3a): 7.02E+07
CCN1CCCc2cccc(c2)-c2ncnc(n2)Nc2cccc(c2)CCNC(=O)C1 [Compound 29, 18-Ethyl-3,5,7,15,18,28-hexaazatetracyclo[20.3.1.1˜2,6˜0.1˜8,12˜]octacosa-1(26), 2(28), 3,5,8(27), 9,11,22,24-nonaen-16-one] | 76.26 % of positive control | 4676 | 21.11 % of positive control | 2.41E+07 | 44.63 % of positive control | 2737 | 21.10 % of positive control | 2.41E+07 | 37.23 % of positive control | 2283 | 4.88 % of positive control | 5.59E+06 | 64.65 % of positive control | 3964 | 19.89 % of positive control | 2.27E+07 | 28.31 % of positive control | 1736 | 1.73 % of positive control | 1.98E+06 | Cell Number, % of positive control [6]: 5.96 % of positive control; Cell Number, Average Total Cell Number [6]: 365; Sox17 Expression, % of positive control [6]: −4.25 % of positive control; Sox17 Expression, Average Total Intensity [6]: −4.86E+06; Cell Number, % of positive control [7]: 34.89 % of positive control; Cell Number, Average Total Cell Number [7]: 2139; Sox17 Expression, % of positive control [7]: 6.10 % of positive control; Sox17 Expression, Average Total Intensity [7]: 6.98E+06; Cell Number, % of positive control (10 ng/ml AA + compound + Wnt3a): 34.09 % of positive control; Cell Number, Average Total Cell Number (10 ng/ml AA + compound + Wnt3a): 2090; Sox17 Expression, % of positive control (10 ng/ml AA + compound + Wnt3a): 4.28 % of positive control; Sox17 Expression, Average Total Intensity (10 ng/ml AA + compound + Wnt3a): 4.89E+06
O=C1NCCCc2cncc(c2)-c2ncnc(n2)Nc2cc(Cl)cc(c2)CN2CCCC1C2 (stereo not drawn) [Compound 37, 10-Chloro-3,5,7,14,20,26,31-heptaazapentacyclo[22.3.1.1˜2,6˜0.1˜8,12˜0.1˜14,18˜]hentriaconta-1(28), 2(31), 3,5,8(30), 9,11,24,26-nonaen-19-one] | 59.34 % of positive control | 4540 | 0.83 % of positive control | 9.23E+05 | 74.65 % of positive control | 5711 | 10.82 % of positive control | 1.21E+07 | 62.31 % of positive control | 4767 | −0.46 % of positive control | −5.16E+05 | 55.20 % of positive control | 4223 | −0.55 % of positive control | −6.15E+05 | 45.77 % of positive control | 3501 | 0.50 % of positive control | 5.60E+05 | Cell Number, % of positive control [6]: 18.70 % of positive control; Cell Number, Average Total Cell Number [6]: 1431; Sox17 Expression, % of positive control [6]: −2.47 % of positive control; Sox17 Expression, Average Total Intensity [6]: −2.75E+06; Cell Number, % of positive control [7]: 51.37 % of positive control; Cell Number, Average Total Cell Number [7]: 3930; Sox17 Expression, % of positive control [7]: −1.69 % of positive control; Sox17 Expression, Average Total Intensity [7]: −1.88E+06; Cell Number, % of positive control (10 ng/ml AA + compound + Wnt3a): 10.34 % of positive control; Cell Number, Average Total Cell Number (10 ng/ml AA + compound + Wnt3a): 791; Sox17 Expression, % of positive control (10 ng/ml AA + compound + Wnt3a): −2.68 % of positive control; Sox17 Expression, Average Total Intensity (10 ng/ml AA + compound + Wnt3a): −2.99E+06
